Assay results as given in patent US20240295544A1 (priority 2020, published 2024).

Tested on: CMs

Q: Which “fragmentation frequency and severity compared with SARS-CoV-2” value (human) does the source give for CC(C)C[C@H](NC(=O)[C@H](Cc1ccccc1)NC(=O)c1cnccn1)B(O)O [bortezomib] here?
A: much more infrequently and less severely than SARS-CoV-2

Q: And the “induction of myofibril fragmentations in CMs” value (no virus, bortezomib only at high doses (1 uM and 10 uM tested), doxorubicin 20 nM and 200 nM (Table 1A))?
A: induced myofibril fragmentations
